According to article PMC9060980 (Evidence-based Complementary and Alternative Medicine : eCAM, 2022):
“And” between values parts separate entries of the source, which are not always exact repeats. Equal values may be shown once. Read-outs that look alike come from different tables or passages of the source.

Key:
[1] = biological target: T1, P-gp (Homo sapiens, UniProt P08183); assay: Permeation of PTX through MDCK–MDR1 cell monolayers; assay type: in vitro ADME; conditions: dog, PTX alone or with VRP 100 μM
T1 construct: expressed in transfected cells; host or cells: MDCK-MDR1 (Madin-Darby canine kidney cells transfected with human MDR1)
T1 sequence (P08183 whole entry): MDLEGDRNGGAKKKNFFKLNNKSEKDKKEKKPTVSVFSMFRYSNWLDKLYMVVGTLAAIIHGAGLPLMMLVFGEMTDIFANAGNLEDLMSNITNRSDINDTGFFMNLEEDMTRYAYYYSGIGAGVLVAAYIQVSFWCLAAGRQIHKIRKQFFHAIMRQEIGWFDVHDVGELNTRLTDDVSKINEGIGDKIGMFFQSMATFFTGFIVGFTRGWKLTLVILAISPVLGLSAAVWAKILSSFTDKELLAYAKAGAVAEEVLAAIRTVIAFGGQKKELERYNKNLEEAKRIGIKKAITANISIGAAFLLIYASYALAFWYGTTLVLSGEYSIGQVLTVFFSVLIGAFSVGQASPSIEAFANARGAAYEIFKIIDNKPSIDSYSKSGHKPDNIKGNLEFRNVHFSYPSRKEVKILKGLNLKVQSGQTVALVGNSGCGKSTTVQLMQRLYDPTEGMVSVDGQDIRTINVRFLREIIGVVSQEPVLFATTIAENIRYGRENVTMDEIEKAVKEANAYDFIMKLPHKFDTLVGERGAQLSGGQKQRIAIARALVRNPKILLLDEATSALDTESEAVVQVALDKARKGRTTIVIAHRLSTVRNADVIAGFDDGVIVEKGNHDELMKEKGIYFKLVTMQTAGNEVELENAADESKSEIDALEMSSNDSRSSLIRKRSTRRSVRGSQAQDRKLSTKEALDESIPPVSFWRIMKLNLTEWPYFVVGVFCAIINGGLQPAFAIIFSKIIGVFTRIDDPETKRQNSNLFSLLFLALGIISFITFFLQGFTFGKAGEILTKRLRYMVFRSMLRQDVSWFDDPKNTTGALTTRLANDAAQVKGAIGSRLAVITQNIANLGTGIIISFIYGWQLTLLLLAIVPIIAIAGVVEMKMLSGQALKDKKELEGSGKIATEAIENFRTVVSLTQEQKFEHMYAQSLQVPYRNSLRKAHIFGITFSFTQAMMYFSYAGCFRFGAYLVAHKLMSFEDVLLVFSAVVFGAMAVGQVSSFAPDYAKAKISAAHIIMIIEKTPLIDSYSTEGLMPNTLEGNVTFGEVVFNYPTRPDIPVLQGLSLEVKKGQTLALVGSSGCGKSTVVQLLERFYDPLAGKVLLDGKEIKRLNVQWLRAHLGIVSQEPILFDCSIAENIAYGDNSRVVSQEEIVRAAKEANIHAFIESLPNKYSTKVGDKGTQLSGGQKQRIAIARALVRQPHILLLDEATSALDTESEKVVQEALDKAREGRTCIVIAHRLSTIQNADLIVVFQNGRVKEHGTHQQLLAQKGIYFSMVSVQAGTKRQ
Protocol: To evaluate the inhibitory effect of flavonoids or lignoids on P-gp-induced reflux of PTX across the cultured cell monolayer, MDCK–MDR1cells were seeded on to Falcon 24-multiwell insert system at a density of 6 × 10^5 cells/mL. The detailed method is applied as previous research with some modification (such as time points of sampling including 0, 30, 60, 90, 120 min are selected, and C0 of PTX in the apical compartment is 1 μg/mL).
The apical (AP) media volume was 500 μL and the basolateral (BL) volume was 1500 μL.

[2] = tested on: A549 tumor; assay type: in vivo, BALB/c mice; design: tumor weight: unit not given beside the values
Protocol: (§1) Tumor-bearing mice were weighed using an electronic scale and tumor sizes were surveyed with vernier calipers, and these procedures were conducted twice a week. Tumor weight was calculated from the tumor sizes according to the reported formula [30]: tumor volume (mm^3) = (tumor length in mm) × (tumor width in mm)^2/2. One and a half hours after the last administration on Day 34, all mice were sacrificed after blood was collected from the orbital sockets using fine capillaries. […] The serum was separated and analyzed by method described previously.

[3] = tested on: A549 cells; assay: Flow cytometry with Annexin V/PI staining; assay type: cell-based, human; conditions: PTX 50 nM, 24 h
Protocol: Afterward, they were washed with PBS, counted, and adjusted to 1 × 10^6 cells/ml. Apoptosis of A549 cells was determined by flow cytometry (FC500; Beckman Coulter, Brea, CA, USA) using the Annexin V-fluorescein isothiocyanate (FITC)/propidium iodide (PI) kit (MULTISCIENCES (LIANKE) BIOTECH, CO., LTD, Hangzhou, China). Staining was performed in accordance with the method described in the manufacturer's instructions. The rate of apoptosis was analyzed using MCF software (Beckman Coulter, Brea, CA, USA).

[4] = in vitro; conditions: human, Caco-2
Protocol: (§2) The apical (AP) media volume was 500 μL and the basolateral (BL) volume was 1500 μL. […] Verapamil serves as a positive control for this experiment and was added to both compartments prior to initiation. At 30, 60, 90, and 120 min, 100 μL of media was removed from the receiver compartment followed by the addition of 100 μL of preheated buffer as replenishment.

[5] = tested on: Caco-2 cells; assay: Caco-2 bidirectional transport of paclitaxel; conditions: paclitaxel 1 μg/mL alone or with verapamil 100 μM
Protocol: as §2

[6] = Mortality, survival, side effect and body weight of A549 xenograft-bearing mice
Protocol: as §1

[7] = tested on: A549 cells; assay: MTT assay in A549; assay type: cell-based; conditions: Homo sapiens, 50 nM, 24 h, read-out: inhibition of the proliferation of A549 cells
Protocol: 100 μL A549 cells (2 × 10^5 cells/mL) were seeded onto a 96-well plate. […] The same volume of complete culture medium served as the negative control. Then, 20 μl MTT solution (5 mg/mL) was added to each well, and the plates were incubated for 4 h. The medium was replaced by 150 μl DMSO, which solubilized the MTT formazan salt. The absorbance of the solution was measured on a microplate reader (Vrioskan Flash, Thermo Scientific, USA) at 490 nm and the results were expressed as a percentage of the control cells.

[8] = tested on: BCL-2 family proteins' expressions in A549; assay: Western blotting of BCL-2 family proteins; assay type: cell-based, human; conditions: PTX 50 nM, 24 h
Protocol: Total cell extracts were lysed in lysis buffer (Ripa, Solarbio, China), and protein extract (60 μg) was added into each well of 10% gel and separated through gel electrophoresis. Gels were soaked in transfer buffer (30 mM glycine, 16 mM Tris-HCl, and 20% methanol) and proteins in the gels were then blotted to polyvinylidene difluoride (PVDF) membranes. Nonfat dry milk in PBST (137 mM NaCl, […], 100 mM Na2HPO4, 20 mM KH2PO4 0.05% tween 20, pH 7.4) was used for blocking nonspecific binding sites. The polyvinylidene difluoride membranes were then incubated with primary antibodies: anti-BCL-2 mAb (1 : 1000), anti-BAK mAB (1 : 2000), anti-MCL-1 pAb (1 : 3000), anti-pMCL-1 mAb (1 : 2000), anti-cyclinB1 mAb (1 : 1000), or anti-b-actin mAb (1 : 5000). Then, secondary antibodies (anti-mouse 1 : 5000, anti-rabbit–1:5000) were applied to the membranes. The ECL western blotting detection kit was used for detecting protein bands in the membranes. Protein bands were detected using the ECL Plus Kit (Huaan biotech, Hangzhou, China), imaged on Tanon 2000. Densitometry analysis was performed using ImageJ software to calculate the relative expression change after normalizing with β-actin.

[9] = Plasma concentration of paclitaxel in A549 xenograft mice; assay type: in vivo; conditions: BALB/c, mouse, intraperitoneal, 10 mg/kg, plasma concentration of paclitaxel […] after administration, PTX 10 mg/kg I.P., PTX + WAB 10 + 50 mg/kg I.G., Day 34, mean
Protocol: Tumor-bearing mice were weighed using an electronic scale and tumor sizes were surveyed with vernier calipers, and these procedures were conducted twice a week. Tumor weight was calculated from the tumor sizes according to the reported formula [30]: tumor volume (mm^3) = (tumor length in mm) × (tumor width in mm)^2/2. One and a half hours after the last administration on Day 34, all mice were sacrificed after blood was collected from the orbital sockets using fine capillaries. […] The serum was separated and analyzed by method described previously [7].

[10] = PTX 10 mg/kg I.P., PTX + WAB 10 + 50 mg/kg I.G.
[11] = PTX 10 mg/kg I.P., PTX + WAB 10 + 50 mg/kg I.G., Day 34

Compound: CC(=O)O[C@H]1C(=O)[C@@]2(C)[C@H]([C@H](OC(=O)c3ccccc3)[C@]3(O)C[C@H](OC(=O)[C@H](O)[C@@H](NC(=O)c4ccccc4)c4ccccc4)C(C)=C1C3(C)C)[C@]1(OC(C)=O)CO[C@@H]1C[C@@H]2O [Paclitaxel]
- Papp B→A at 120 min, 1 μg/mL [1]: 86.4 ± 14.1 ×10⁻⁶ cm/s
- tumor volume, group mean ([2]; Day 1, PTX 10 mg/kg I.P., PTX+WAB 10+50 mg/kg I.G.): 80.63 mm^3
- tumor volume, group mean ([2]; Day 4, PTX 10 mg/kg I.P., PTX+WAB 10+50 mg/kg I.G.): 88.36 mm^3
- tumor volume, group mean ([2]; Day 7, PTX 10 mg/kg I.P., PTX+WAB 10+50 mg/kg I.G.): 123.87 mm^3
- tumor volume, group mean ([2]; Day 10, PTX 10 mg/kg I.P., PTX+WAB 10+50 mg/kg I.G.): 140.25 mm^3
- tumor volume, group mean ([2]; Day 13, PTX 10 mg/kg I.P., PTX+WAB 10+50 mg/kg I.G.): 170.16 mm^3
- tumor volume, group mean ([2]; Day 16, PTX 10 mg/kg I.P., PTX+WAB 10+50 mg/kg I.G.): 131.58 mm^3
- tumor volume, group mean ([2]; Day 19, PTX 10 mg/kg I.P., PTX+WAB 10+50 mg/kg I.G.): 181.34 mm^3
- tumor volume, group mean ([2]; Day 22, PTX 10 mg/kg I.P., PTX+WAB 10+50 mg/kg I.G.): 174.31 mm^3
- tumor volume, group mean ([2]; Day 25, PTX 10 mg/kg I.P., PTX+WAB 10+50 mg/kg I.G.): 203.28 mm^3
- tumor volume, group mean ([2]; Day 28, PTX 10 mg/kg I.P., PTX+WAB 10+50 mg/kg I.G.): 256.78 mm^3
- tumor volume, group mean ([2]; Day 31, PTX 10 mg/kg I.P., PTX+WAB 10+50 mg/kg I.G.): 273.56 mm^3
- tumor volume, group mean ([2]; Day 34, PTX 10 mg/kg I.P., PTX+WAB 10+50 mg/kg I.G.): 263.74 mm^3
- activity against A549 tumor growth [2, 10]: weak inhibitory activity against A549
- Inhibition rate [2, 11]: 38.60 ± 64.87%
- tumor weight ([2]; PTX 10 mg/kg I.P., PTX+WAB 10+50 mg/kg I.G., Day 34, individual animals, listed as PTX): 0.2469 and 0.1592 and 0.156 and 0.1923 and 0.1802 and 0.1183 and 0.1699
- Mean (growth factor) ([2]; PTX 10 mg/kg, PTX+WAB 10+50 mg/kg, from tumor size Day 34/Day 1): 13.43
- percentage of cells Annexin V positive [3]: approx. 16.3%
- apoptosis ([3]; with or without HDS-2 80 μg/mL): 17.5%
- percentage of cells PI positive (necrosis) ([3]; with or without HDS-2 80 μg/mL): approx. 22.8%
- Papp A→B at 120 min, 1 μg/mL [4]: 0.252 ×10⁻⁶ cm/s
- Papp B→A at 120 min, 1 μg/mL [4]: 75.3 ×10⁻⁶ cm/s
- Papp AP–BL of paclitaxel [5]: 0.25 ± 0.43 ×10^−6 cm/s
- Papp BL–AP of paclitaxel [5]: 75.26 ± 7.43 ×10^−6 cm/s
- Survival rate [6, 10]: 66.7%
- Mortality (dead mice) [6, 11]: 4
- mortality % ([6]; PTX group, PTX+WAB 10+50 mg/kg, Day 34): 33.33%
- inhibition at 0.05 µM [7]: ~28%
- expressions of cyclinB1, BAK, BCL-2, MCL-1, and pMCL-1 [8]: significantly upregulated
- concentration at […] [9]: 201 ng/mL
